{"source": "patent US20060009432A1", "about": "“Use of neurosteroids to treat neuropathic pain” (priority 2004, published 2006)", "key": {"[1]": {"test_system": "SNL rats", "assay": "Thermal withdrawal (Hargreaves) in spinal nerve ligation model", "assay_type": "in vivo, rat", "method": "(§1) (A) L5/L6 spinal nerve ligation (SNL) was performed as described by Kim and Chung (Pain, 50,355-363(1992)). Animals (mice or rats) were anesthetized with halothane. An incision was made lateral to the lumbar spine. The right L5 and L6 spinal nerves were isolated and tightly ligated distal to the dorsal root ganglion. The incision was closed, and animals were allowed to recover for 10 days. Sham-operated animals were prepared in an identical fashion except that the spinal nerves were not ligated.\n(B) The method of Hargreaves et al. (Pain, 32, 77-88 (1988)) was used to measure the thermal withdrawal latency in SNL rats. Animals were acclimated within Plexiglas enclosures on a clear glass plate maintained at 30° C. A radiant heat source (high-intensity projector lamp) was focused onto the plantar surface of the paw. When the paw was withdrawn, a motion detector halted the stimulus and a timer. A maximal cut-off of 40 sec for rats and 30 sec for mice was used to prevent tissue damage. Differences in responses between groups were tested by using the standard ANOVA statistical test followed by post hoc testing with Student's t test with Bonferroni's correction. Significance was defined as P<0.05.\nThermal withdrawal response was measured 15, 30, 45, 60, 90 and 120 minutes after i.p. administration of ganaxolone (at 1 mg/kg, 3 mg/kg, 6 mg/kg or 10 mg/kg). Table 3 provides the resulting measurement of thermal withdrawal in groups of five rats per dosage level."}, "[2]": {"test_system": "L5/L6 spinal nerve ligation (SNL) rats", "assay": "Tactile allodynia (von Frey) in spinal nerve ligation model", "assay_type": "in vivo, rat", "conditions": "SNL rats", "method": "as §1\nThe protocol was repeated until three changes in behavior were determined. The maximal cut-off size values used were 15 g for rats and 3.5 g for mice. The 50% paw withdrawal threshold was determined as 10Xf+kδ/10,000, where Xf=the value of the last von Frey filament used, k=Dixon value for the positive/negative pattern, and δ=the logarithmic difference between stimuli.\nTactile allodynia response was measured 15, 30, 45, 60, 90 and 120 minutes after i.p. administration of ganaxolone (at 1 mg/kg, 3 mg/kg, 6 mg/kg or 10 mg/kg). Table 2 provides the resulting measurement of tactile allodynia response in groups of five rats per dosage level."}}}
{"smiles": "CC(=O)[C@H]1CC[C@H]2[C@@H]3CC[C@H]4C[C@](C)(O)CC[C@]4(C)[C@H]3CC[C@]12C", "note": "[ganaxolone, 3α-hydroxy-3β-methyl-5α-pregnan-20-one]", "values": [{"measurement": "% Activity ± s.e.m. (thermal withdrawal)", "setting": "[1]; 1 mg/kg i.p., 15 min", "value": "24.59 ± 14.93", "unit": "%"}, {"measurement": "% Activity ± s.e.m. (thermal withdrawal)", "setting": "[1]; 1 mg/kg i.p., 30 min", "value": "27.99 ± 17.71", "unit": "%"}, {"measurement": "% Activity ± s.e.m. (thermal withdrawal)", "setting": "[1]; 1 mg/kg i.p., 45 min", "value": "3.98 ± 2.63", "unit": "%"}, {"measurement": "% Activity ± s.e.m. (thermal withdrawal)", "setting": "[1]; 1 mg/kg i.p., 60 min", "value": "12.62 ± 8.69", "unit": "%"}, {"measurement": "% Activity ± s.e.m. (thermal withdrawal)", "setting": "[1]; 1 mg/kg i.p., 90 min", "value": "17.40 ± 8.65", "unit": "%"}, {"measurement": "% Activity ± s.e.m. (thermal withdrawal)", "setting": "[1]; 1 mg/kg i.p., 120 min", "value": "12.13 ± 9.25", "unit": "%"}, {"measurement": "% Activity ± s.e.m. (thermal withdrawal)", "setting": "[1]; 3 mg/kg i.p., 15 min", "value": "37.15 ± 18.52", "unit": "%"}, {"measurement": "% Activity ± s.e.m. (thermal withdrawal)", "setting": "[1]; 3 mg/kg i.p., 30 min", "value": "48.03 ± 22.45", "unit": "%"}, {"measurement": "% Activity ± s.e.m. (thermal withdrawal)", "setting": "[1]; 3 mg/kg i.p., 45 min", "value": "19.84 ± 12.97", "unit": "%"}, {"measurement": "% Activity ± s.e.m. (thermal withdrawal)", "setting": "[1]; 3 mg/kg i.p., 60 min", "value": "14.25 ± 10.87", "unit": "%"}, {"measurement": "% Activity ± s.e.m. (thermal withdrawal)", "setting": "[1]; 3 mg/kg i.p., 90 min", "value": "4.18 ± 4.18", "unit": "%"}, {"measurement": "% Activity ± s.e.m. (thermal withdrawal)", "setting": "[1]; 3 mg/kg i.p., 120 min", "value": "16.57 ± 11.76", "unit": "%"}, {"measurement": "% Activity ± s.e.m. (thermal withdrawal)", "setting": "[1]; 6 mg/kg i.p., 15 min", "value": "79.03 ± 10.50", "unit": "%"}, {"measurement": "% Activity ± s.e.m. (thermal withdrawal)", "setting": "[1]; 6 mg/kg i.p., 30 min", "value": "70.78 ± 11.53", "unit": "%"}, {"measurement": "% Activity ± s.e.m. (thermal withdrawal)", "setting": "[1]; 6 mg/kg i.p., 45 min", "value": "43.72 ± 10.03", "unit": "%"}, {"measurement": "% Activity ± s.e.m. (thermal withdrawal)", "setting": "[1]; 6 mg/kg i.p., 60 min", "value": "60.94 ± 10.27", "unit": "%"}, {"measurement": "% Activity ± s.e.m. (thermal withdrawal)", "setting": "[1]; 6 mg/kg i.p., 90 min", "value": "42.83 ± 10.41", "unit": "%"}, {"measurement": "% Activity ± s.e.m. (thermal withdrawal)", "setting": "[1]; 6 mg/kg i.p., 120 min", "value": "10.88 ± 6.34", "unit": "%"}, {"measurement": "% Activity ± s.e.m. (thermal withdrawal)", "setting": "[1]; 10 mg/kg i.p., 15 min", "value": "70.07 ± 18.30", "unit": "%"}, {"measurement": "% Activity ± s.e.m. (thermal withdrawal)", "setting": "[1]; 10 mg/kg i.p., 30 min", "value": "46.91 ± 14.25", "unit": "%"}, {"measurement": "% Activity ± s.e.m. (thermal withdrawal)", "setting": "[1]; 10 mg/kg i.p., 45 min", "value": "47.36 ± 12.97", "unit": "%"}, {"measurement": "% Activity ± s.e.m. (thermal withdrawal)", "setting": "[1]; 10 mg/kg i.p., 60 min", "value": "41.45 ± 10.90", "unit": "%"}, {"measurement": "% Activity ± s.e.m. (thermal withdrawal)", "setting": "[1]; 10 mg/kg i.p., 90 min", "value": "33.58 ± 7.53", "unit": "%"}, {"measurement": "% Activity ± s.e.m. (thermal withdrawal)", "setting": "[1]; 10 mg/kg i.p., 120 min", "value": "23.87 ± 4.35", "unit": "%"}, {"measurement": "Sedation", "setting": "[1]; 10 mg/kg i.p., thermal withdrawal test", "value": "sedated four of the five rats for about one hour"}, {"measurement": "% Activity ± s.e.m. (tactile allodynia)", "setting": "[2]; 1 mg/kg i.p., 15 min", "value": "2.83 ± 2.83", "unit": "%"}, {"measurement": "% Activity ± s.e.m. (tactile allodynia)", "setting": "[2]; 1 mg/kg i.p., 30 min", "value": "6.35 ± 3.38", "unit": "%"}, {"measurement": "% Activity ± s.e.m. (tactile allodynia)", "setting": "[2]; 1 mg/kg i.p., 45 min", "value": "3.20 ± 2.21", "unit": "%"}, {"measurement": "% Activity ± s.e.m. (tactile allodynia)", "setting": "[2]; 1 mg/kg i.p., 60 min", "value": "2.41 ± 1.53", "unit": "%"}, {"measurement": "% Activity ± s.e.m. (tactile allodynia)", "setting": "[2]; 1 mg/kg i.p., 90 min", "value": "2.41 ± 1.53", "unit": "%"}, {"measurement": "% Activity ± s.e.m. (tactile allodynia)", "setting": "[2]; 1 mg/kg i.p., 120 min", "value": "3.06 ± 3.06", "unit": "%"}, {"measurement": "% Activity ± s.e.m. (tactile allodynia)", "setting": "[2]; 3 mg/kg i.p., 15 min", "value": "9.69 ± 4.56", "unit": "%"}, {"measurement": "% Activity ± s.e.m. (tactile allodynia)", "setting": "[2]; 3 mg/kg i.p., 30 min", "value": "13.76 ± 6.54", "unit": "%"}, {"measurement": "% Activity ± s.e.m. (tactile allodynia)", "setting": "[2]; 3 mg/kg i.p., 45 min", "value": "14.02 ± 5.14", "unit": "%"}, {"measurement": "% Activity ± s.e.m. (tactile allodynia)", "setting": "[2]; 3 mg/kg i.p., 60 min", "value": "11.56 ± 3.01", "unit": "%"}, {"measurement": "% Activity ± s.e.m. (tactile allodynia)", "setting": "[2]; 3 mg/kg i.p., 90 min", "value": "9.19 ± 2.67", "unit": "%"}, {"measurement": "% Activity ± s.e.m. (tactile allodynia)", "setting": "[2]; 3 mg/kg i.p., 120 min", "value": "9.64 ± 1.63", "unit": "%"}, {"measurement": "% Activity ± s.e.m. (tactile allodynia)", "setting": "[2]; 6 mg/kg i.p., 15 min", "value": "26.79 ± 9.34", "unit": "%"}, {"measurement": "% Activity ± s.e.m. (tactile allodynia)", "setting": "[2]; 6 mg/kg i.p., 30 min", "value": "30.85 ± 6.77", "unit": "%"}, {"measurement": "% Activity ± s.e.m. (tactile allodynia)", "setting": "[2]; 6 mg/kg i.p., 45 min", "value": "47.30 ± 14.99", "unit": "%"}, {"measurement": "% Activity ± s.e.m. (tactile allodynia)", "setting": "[2]; 6 mg/kg i.p., 60 min", "value": "34.17 ± 15.78", "unit": "%"}, {"measurement": "% Activity ± s.e.m. (tactile allodynia)", "setting": "[2]; 6 mg/kg i.p., 90 min", "value": "26.91 ± 15.45", "unit": "%"}, {"measurement": "% Activity ± s.e.m. (tactile allodynia)", "setting": "[2]; 6 mg/kg i.p., 120 min", "value": "9.32 ± 2.85", "unit": "%"}, {"measurement": "% Activity ± s.e.m. (tactile allodynia)", "setting": "[2]; 10 mg/kg i.p., 15 min", "value": "47.91 ± 21.86", "unit": "%"}]}
